Test results: PubChem BioAssay (NCI)
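Each compound was tested at five concentrations against cells in 96-well plates for 48 hours. The concentration for 50% growth inhibition is given as GI50. TGI: total growth inhibition.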

Key:
Test in all cases: growth of human tumour cells (NCI), 48 h
SNB-19 CNS = tested on: SNB-19 CNS
786-0 renal = tested on: 786-0 renal
K-562 leukemia = tested on: K-562 leukemia
NCI-H226 lung = tested on: NCI-H226 lung
DU-145 prostate = tested on: DU-145 prostate
HT29 colon = tested on: HT29 colon
KM12 colon = tested on: KM12 colon
HCT-15 colon = tested on: HCT-15 colon
HCC-2998 colon = tested on: HCC-2998 colon
CAKI-1 renal = tested on: CAKI-1 renal

Row | Structure (SMILES) | GI50 (SNB-19 CNS) [µM] | TGI (SNB-19 CNS) [µM] | GI50 (786-0 renal) [µM] | TGI (786-0 renal) [µM] | GI50 (K-562 leukemia) [µM] | TGI (K-562 leukemia) [µM] | GI50 (NCI-H226 lung) [µM] | TGI (NCI-H226 lung) [µM] | GI50 (DU-145 prostate) [µM] | TGI (DU-145 prostate) [µM] | GI50 (HT29 colon) [µM] | TGI (HT29 colon) [µM] | GI50 (KM12 colon) [µM] | TGI (KM12 colon) [µM] | GI50 (HCT-15 colon) [µM] | TGI (HCT-15 colon) [µM] | GI50 (HCC-2998 colon) [µM] | TGI (HCC-2998 colon) [µM] | GI50 (CAKI-1 renal) [µM] | TGI (CAKI-1 renal) [µM]
1 | COC(=O)c1cc2c3ccccc3[nH]c2c2sccc12 | 23.6 | 79.7 | 13.8 | 40.7 | 15.2 | > 100 | 68 | > 100 | 19.7 | 66.5 | 6.96 | 18.7 | 12.3 | 87.2 | 8.9 | 94.4 | 19.4 | 43.5 | 13.7 | 98.3
2 | O=[N+]([O-])c1cc(C(F)(F)F)ccc1Sc1ccc(C(F)(F)F)cc1[N+](=O)[O-] | 70.2 | > 100 | > 100 | > 100 | 3.49 | > 100 | > 100 | > 100 | 10.6 | > 100 | 3.28 | 9.79 | 5.24 | > 100 | 6.84 | > 100 | 19.7 | > 100 | 5.67 | > 100
3 | OCCNc1nc(Nc2ccc(Cl)c(Cl)c2)nc2ccccc12 | 5.02 | 18.6 | 3.04 | 11 | 3.09 | 10.8 | 12.9 | 34.2 | 11 | 22.9 | 3.39 | 12.1 | 4.19 | 16.2 | 2.84 | 9.34 | 2.52 | 6.85 | 4.66 | 18.2
4 | CCCCCCCCCCCCCCCCCCOCC(CCP(=O)(CP(=O)(O)O)Oc1ccccc1)OCCCCCCCCCCCCCCCCCC (centres undefined) |  | > 100 |  | > 100 |  | > 100 |  | > 100 |  | > 100 |  | > 100 |  | > 100 |  | > 100 |  | > 100 |  | > 100
5 | N#Cc1c(N)nc(N2CCOCC2)c(C#N)c1-c1ccccn1 | > 100 | > 100 | > 100 | > 100 | > 100 | > 100 |  | > 100 | > 100 | > 100 | > 100 | > 100 | > 100 | > 100 | > 100 | > 100 | > 82 | > 100 | > 100 | > 100
6 | CCCN(CCC)c1ccc(/C=N/NC(=O)c2cccnc2)c(OC)c1 | 41.6 | > 100 | 32.7 | > 100 | 22.2 | > 100 | 32 | > 100 | 27.8 | 94.8 | 15.8 | 55 | 21.3 | 68.3 | 27.5 | > 100 | 26.6 | 98.4 | 21.5 | 93.2
7 | C/C(=C\c1cc(C(F)(F)F)n(-c2ccc(N)cc2)n1)[C@@H]1C[C@@H]2O[C@]2(C)CCC[C@H](C)[C@H](O)[C@@H](C)C(=O)C(C)(C)[C@@H](O)CC(=O)O1 | 0.0711 | > 11.1 | 0.0614 | > 11.1 | 0.0203 | > 11.1 | 0.956 | > 11.1 | 0.0372 | 0.265 | 0.00621 | 0.339 | 0.00522 | > 11.1 | 0.0256 | > 11.1 | 0.0244 | 1.39 | 0.221 | > 11.1
8 | COc1cc(-c2csc(NC(=O)Nc3ccc(C(F)(F)F)cc3)n2)cc(OC)c1OC | 2.69 | 12.3 | 1.62 | 3.54 | 3.04 | > 100 | 2.35 | 8.4 | 3.22 | 12.8 | 2.39 | 7.08 | 2.09 | 7.48 | 1.71 | 4.09 | 2.71 | 9.34 | 2.41 | 8.62
9 | O=C(N/N=C/c1ccc(O)cc1O)c1cccc(Nc2ccnc(C(F)(F)F)c2)c1 | 1.01 | > 72.6 | 1.14 | 10.6 | 0.587 | 19.4 | 1.21 | 9.44 | 1.93 | 20.9 | 5.14 | > 100 | 2.73 | 16.2 | 2.2 | 51.7 | 0.778 | 18.1 | 1.99 | 22.5
